From the supplement of paper PMC13380429

Assays:
Settings in all cases: 72 h
HepG2 [1] = assay: relative viability EC50 (midpoint between 100% and the lowest measured viability); higher = less toxic
Calu-3 [2] = assay: as above
U2OS [3] = assay: as above
Vero E6 [4] = assay: as above
Caco-2 [5] = assay: as above
HepG2 [6] = assay: drug sensitivity score (DSS) for viability; higher = more toxic; extreme values may be limits of the assay
Calu-3 [7] = assay: as above
U2OS [8] = assay: as above
Vero E6 [9] = assay: as above
Caco-2 [10] = assay: as above
HepG2 [11] = assay: cell viability relative to DMSO; higher = less toxic
Calu-3 [12] = assay: as above
U2OS [13] = assay: as above
Vero E6 [14] = assay: as above
Caco-2 [15] = assay: as above

SMILES	relative viability EC50 (HepG2 [1]) [µM]	relative viability EC50 (Calu-3 [2]) [µM]	relative viability EC50 (U2OS [3]) [µM]	relative viability EC50 (Vero E6 [4]) [µM]	relative viability EC50 (Caco-2 [5]) [µM]	drug sensitivity score (HepG2 [6])	drug sensitivity score (Calu-3 [7])	drug sensitivity score (U2OS [8])	drug sensitivity score (Vero E6 [9])	drug sensitivity score (Caco-2 [10])	cell viability (HepG2 [11]; 1 nM) [%]	cell viability (HepG2 [11]; 10 nM) [%]	cell viability (HepG2 [11]; 100 nM) [%]	cell viability (HepG2 [11]; 1000 nM) [%]	cell viability (HepG2 [11]; 10000 nM) [%]	cell viability (Calu-3 [12]; 1 nM) [%]	cell viability (Calu-3 [12]; 10 nM) [%]	cell viability (Calu-3 [12]; 100 nM) [%]	cell viability (Calu-3 [12]; 1000 nM) [%]	cell viability (Calu-3 [12]; 10000 nM) [%]	cell viability (U2OS [13]; 1 nM) [%]	cell viability (U2OS [13]; 10 nM) [%]	cell viability (U2OS [13]; 100 nM) [%]	cell viability (U2OS [13]; 1000 nM) [%]	cell viability (U2OS [13]; 10000 nM) [%]	cell viability (Vero E6 [14]; 1 nM) [%]	cell viability (Vero E6 [14]; 10 nM) [%]	cell viability (Vero E6 [14]; 100 nM) [%]	cell viability (Vero E6 [14]; 1000 nM) [%]	cell viability (Vero E6 [14]; 10000 nM) [%]	cell viability (Caco-2 [15]; 1 nM) [%]	cell viability (Caco-2 [15]; 10 nM) [%]	cell viability (Caco-2 [15]; 100 nM) [%]	cell viability (Caco-2 [15]; 1000 nM) [%]	cell viability (Caco-2 [15]; 10000 nM) [%]
Clc1ccc([C@]23CNC[C@H]2C3)cc1Cl [amitifadine]	> 10	> 10	> 10	> 10	> 10	0	0	0	0	0	89.5	104	98.2	98.6	94.9	106	90.7	101	105	97.9	100	97.6	103	98.4	104	101	105	100	103	99	99.2	92	103	87.3	95.8
CCOc1cc([C@@H](CS(C)(=O)=O)N2C(=O)c3cccc(NC(C)=O)c3C2=O)ccc1OC [apremilast]	> 10	> 10	> 10	> 10	> 10	0	0	0	0	0	102	95	101	84.1	100	102	108	89.8	99.9	108	93.1	101	97.8	92.7	99.1	104	104	98.7	99.6	99.6	93.4	100	98.8	97.3	106
C[C@@H](O[C@H]1OCCN(Cc2n[nH]c(=O)[nH]2)[C@H]1c1ccc(F)cc1)c1cc(C(F)(F)F)cc(C(F)(F)F)c1 [aprepitant]	> 10	> 10	> 10	> 10	> 10	0	0	0	0	0	102	103	106	109	95.3	90.9	105	103	97.7	97.1	99.5	103	95.3	102	88.4	97.4	104	98.8	103	103	100	107	100	105	89.2
